Experimental data from patent US20220168307A1, “TREATMENT OF SMA” (Hoffmann-La Roche Inc., priority 2019, published 2022).
“Also recorded” adds a separate entry of the source.

How the values were obtained:
CYP2C19 [1] = target: T1, CYP2C19 (Homo sapiens, UniProt P33261); experiment: Direct inhibition of CYP2C19 ((S)-mephenytoin) in human liver microsomes
CYP1A2 [2] = target: T2, CYP1A2 (Homo sapiens, UniProt P05177); experiment: in vitro; details: pooled human liver microsomes, pH 7.4, probe phenacetin
T2 sequence (P05177 1-516): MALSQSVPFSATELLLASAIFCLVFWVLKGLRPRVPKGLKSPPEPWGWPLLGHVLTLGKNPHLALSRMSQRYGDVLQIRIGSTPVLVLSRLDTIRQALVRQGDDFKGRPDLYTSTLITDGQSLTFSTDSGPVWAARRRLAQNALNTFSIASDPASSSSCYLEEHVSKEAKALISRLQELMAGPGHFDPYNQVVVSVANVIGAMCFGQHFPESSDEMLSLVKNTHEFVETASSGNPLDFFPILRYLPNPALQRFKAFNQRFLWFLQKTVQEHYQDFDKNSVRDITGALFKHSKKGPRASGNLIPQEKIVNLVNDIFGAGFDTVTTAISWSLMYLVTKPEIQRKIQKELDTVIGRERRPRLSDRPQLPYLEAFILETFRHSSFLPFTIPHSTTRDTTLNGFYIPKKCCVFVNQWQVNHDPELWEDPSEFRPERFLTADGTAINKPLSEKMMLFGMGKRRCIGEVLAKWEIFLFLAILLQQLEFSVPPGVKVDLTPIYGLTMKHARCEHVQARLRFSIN

CYP2C9 [3] = target: T3, CYP2C9 (Homo sapiens, UniProt P11712); experiment: in vitro; details: pooled human liver microsomes, pH 7.4, probe diclofenac
T3 sequence (P11712 whole entry): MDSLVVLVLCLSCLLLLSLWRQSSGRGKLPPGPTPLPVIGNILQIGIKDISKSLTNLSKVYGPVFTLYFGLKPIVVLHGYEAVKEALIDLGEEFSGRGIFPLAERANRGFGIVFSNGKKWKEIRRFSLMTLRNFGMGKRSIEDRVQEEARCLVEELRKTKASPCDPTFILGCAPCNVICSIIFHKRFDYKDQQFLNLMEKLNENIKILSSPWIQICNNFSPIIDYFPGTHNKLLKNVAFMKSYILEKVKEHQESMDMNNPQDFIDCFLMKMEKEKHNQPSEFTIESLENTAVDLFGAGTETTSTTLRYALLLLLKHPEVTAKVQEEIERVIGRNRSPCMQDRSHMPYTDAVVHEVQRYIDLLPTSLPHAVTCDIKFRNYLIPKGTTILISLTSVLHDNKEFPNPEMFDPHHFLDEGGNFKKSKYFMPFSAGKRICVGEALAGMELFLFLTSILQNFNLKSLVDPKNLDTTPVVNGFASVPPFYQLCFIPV

CYP2B6 [4] = target: T4, CYP2B6 (Homo sapiens, UniProt P20813); experiment: in vitro; details: pooled human liver microsomes, pH 7.4, probe bupropion
T4 sequence (P20813 1-491): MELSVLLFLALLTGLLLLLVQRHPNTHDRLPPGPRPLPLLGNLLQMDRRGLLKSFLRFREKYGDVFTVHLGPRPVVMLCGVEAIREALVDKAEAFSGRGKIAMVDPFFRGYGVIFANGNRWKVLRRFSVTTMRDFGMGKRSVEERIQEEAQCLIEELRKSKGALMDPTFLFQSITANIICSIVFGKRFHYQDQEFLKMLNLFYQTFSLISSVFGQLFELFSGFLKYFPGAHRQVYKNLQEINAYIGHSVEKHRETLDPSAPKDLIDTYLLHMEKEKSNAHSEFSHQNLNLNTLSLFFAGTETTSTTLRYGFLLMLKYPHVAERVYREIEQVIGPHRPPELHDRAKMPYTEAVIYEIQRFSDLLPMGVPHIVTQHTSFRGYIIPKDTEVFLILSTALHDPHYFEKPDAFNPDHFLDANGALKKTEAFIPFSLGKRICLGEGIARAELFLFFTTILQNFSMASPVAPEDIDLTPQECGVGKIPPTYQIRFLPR

CYP2B6 [5] = target: T4, CYP2B6; details: risdiplam up to 12.5 μM
CYP2C9 [6] = target: T3, CYP2C9; experiment: Direct inhibition of CYP2C9 (diclofenac) in human liver microsomes
CYP1A2 [7] = target: T2, CYP1A2; experiment: biochemical
CYP2D6 = CYP2D6 (Homo sapiens, UniProt P10635); experiment: biochemical
CYP2D6, sequence (P10635 whole entry): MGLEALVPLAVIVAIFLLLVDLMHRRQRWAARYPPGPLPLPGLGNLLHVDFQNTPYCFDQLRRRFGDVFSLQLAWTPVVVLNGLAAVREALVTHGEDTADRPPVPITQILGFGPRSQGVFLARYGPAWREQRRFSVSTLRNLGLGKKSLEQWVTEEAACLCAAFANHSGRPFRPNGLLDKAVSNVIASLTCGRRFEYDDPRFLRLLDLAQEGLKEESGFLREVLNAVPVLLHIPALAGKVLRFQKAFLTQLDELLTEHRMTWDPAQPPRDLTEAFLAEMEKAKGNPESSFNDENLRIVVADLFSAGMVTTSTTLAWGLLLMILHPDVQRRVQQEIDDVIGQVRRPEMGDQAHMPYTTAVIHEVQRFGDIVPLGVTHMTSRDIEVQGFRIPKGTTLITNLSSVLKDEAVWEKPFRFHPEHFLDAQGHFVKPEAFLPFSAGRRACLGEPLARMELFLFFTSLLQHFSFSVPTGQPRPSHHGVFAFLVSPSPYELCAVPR

CYP1A2 [8] = target: T2, CYP1A2; experiment: Time-dependent inhibition (IC50 shift) of CYP1A2 in human liver microsomes; type: in vitro ADME; details: risdiplam up to 12.5 μM
Protocol: Donors CMV negative for serology are unm
All incubations were conducted in duplicate.
% remaining=(C+I/C^−I)*100

CYP2C19 [9] = target: T1, CYP2C19; experiment: in vitro; details: pooled human liver microsomes, pH 7.4, probe (S)-mephenytoin

T1 sequence (P33261 whole entry): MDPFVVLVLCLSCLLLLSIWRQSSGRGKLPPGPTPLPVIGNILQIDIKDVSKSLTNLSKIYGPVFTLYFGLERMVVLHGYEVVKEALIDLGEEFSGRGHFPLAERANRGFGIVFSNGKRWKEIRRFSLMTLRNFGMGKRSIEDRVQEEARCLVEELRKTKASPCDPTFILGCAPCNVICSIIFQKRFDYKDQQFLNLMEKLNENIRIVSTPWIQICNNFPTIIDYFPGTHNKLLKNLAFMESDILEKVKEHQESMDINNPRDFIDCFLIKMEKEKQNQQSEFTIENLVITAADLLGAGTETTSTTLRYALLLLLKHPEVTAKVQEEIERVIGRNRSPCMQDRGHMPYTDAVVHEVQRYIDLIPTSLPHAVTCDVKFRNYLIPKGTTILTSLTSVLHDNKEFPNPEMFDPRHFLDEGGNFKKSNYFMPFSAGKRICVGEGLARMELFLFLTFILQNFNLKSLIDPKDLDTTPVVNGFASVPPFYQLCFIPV

Cc1cn2nc(-c3cc(=O)n4cc(N5CCNC6(CC6)C5)ccc4n3)cc(C)c2n1 [risdiplam, 7-(4,7-diazaspiro[2.5]octan-7-yl)-2-(2,8-dimethylimidazo[1,2-b]pyridazin-6-yl)pyrido[1,2-a]pyrimidin-4-one]
% Control activity at (CYP2C19 [1]; direct inhibition, substrate (S)-Mephenytoin, concentration not given, duplicates): 97%
reversible (direct) inhibition (in words) (CYP2C19 [1]; risdiplam up to 12.5 μM): did not show any significant reversible or time-dependent inhibition; also recorded: No significant reversible or time-dependent inhibition; also recorded: No significant reversible inhibition; also recorded: low potential to cause direct or time-dependent inhibition
activity (CYP1A2 [2]): 94%
activity (CYP2C9 [3]): 83%
activity (CYP2B6 [4]): 88%
time-dependent inhibition (in words) (CYP2B6 [5]): did not show any significant reversible or time-dependent inhibition; also recorded: No significant reversible or time-dependent inhibition; also recorded: No significant time-dependent inhibition; also recorded: low potential to cause direct or time-dependent inhibition
% Control activity at (CYP2C9 [6]; direct inhibition, substrate Diclofenac, concentration not given, duplicates): 82%
reversible (direct) inhibition (in words) (CYP2C9 [6]; risdiplam up to 12.5 μM): did not show any significant reversible or time-dependent inhibition; also recorded: No significant reversible or time-dependent inhibition; also recorded: No significant reversible inhibition; also recorded: low potential to cause direct or time-dependent inhibition
IC50 (CYP1A2 [7]): > 12.5 µM
IC50 (CYP2D6): > 12.5 µM
time-dependent inhibition (in words) (CYP1A2 [8]): did not show any significant reversible or time-dependent inhibition; also recorded: No significant reversible or time-dependent inhibition; also recorded: No significant time-dependent inhibition; also recorded: low potential to cause direct or time-dependent inhibition
activity (CYP2C19 [9]): 102%
